Source: patent publication US20080113938A1, “ACCELERATOR FOR MINERAL ABSORPTION AND USE THEREOF” (KABUSHIKI KAISHA HAYASHIBARA SEIBUTSU KAGAKU KENKYUJO, priority 2003, published 2008)
Marks after values point to notes of the source that are not given here.

How the values were obtained:
Assay type in all cases: cell-based, Wister rats
[1] = tested on: reversed canal sac of jejunum; experiment: Calcium absorption in reversed canal sac, jejunum
Description: (§1) Experiment 1 confirmed that cyclic tetrasaccharide promotes mineral absorption in alimentary canal of rat concretely in intestinum ileum or its upper alimentary canal. The following experiment was carried out in order to determine a part of alimentary canal, cyclic tetrasaccharide acts on to promote mineral absorption. Twenty heads of Wister rats (nine week aged male, commercialized by Charlesriver Corporation, Kanagawa, Japan) were bred for three days with a usual solid feed for rats. Under the anesthetization with ether, alimentary canal was taken out from each rat which had been bled from a jugular vein and treated by abdominal operation. Each alimentary canal was divided into jejunum, intestinum ileum and colon/rectum and washed with physiological saline to remove the content. The resulting jejunum specimen, intestinum ileum specimen or colon/rectum specimen was cut off to prepare each midsection sized with about 10 cm in length. The resulting midsection of each specimen was reversed using a glass rod and immersed in a physiological saline babbled with gas consisting of 95% oxygen and 5% carbon dioxide. The resultant was cut into pieces sized with 5 cm in length and each piece was tied with a suture thread at both ends to prepare a reversed canal sac, and injected with about 0.5 ml of an internal sac solution containing 30 mM Tris-HCl buffer (pH7.4), 125 mM sodium chloride, 4 mM potassium chloride, 10 mM glucose and 1.25 mM calcium chloride (dihydrate) with a syringe and weighed. The resulting sac was immersed in an external sac solution (being bubbled with the gas consisting of 95% oxygen and 5% carbon dioxide) containing 50 mM, 100 mM or 200 mM of the same cyclic tetrasaccharide to Experiment 1 in the above solution containing 30 mM Tris-HCl buffer (pH7.4), 125 mM sodium chloride, 4 mM potassium chloride, 10 mM glucose and 1.25 mM calcium chloride (dihydrate). At 15 or 30 minutes after the immersion, the reversed canal sac was taken out from the solution and washed with distilled water. The internal sac solution was collected from the resulting sac and admixed with distilled water to give a final volume of 25 ml. The resulting solution was subjected to a calorimetric measurement of calcium content using “CALCIUM TEST C WAKO™” (commercialized by Wako Pure Chemicals Corporation, Osaka, Japan). As a negative control, an external sac solution without saccharides. As a positive control, an external sac solution containing 200 mM maltitol, reported to have the effect on promoting mineral absorption though intestinal canal, instead of cyclic tetrasaccharide were prepared and carried out in the same manner. Speed of calcium absorption (nmol/min·cm^2) and its relative values defining the value of negative control as 100 were calculated.

[2] = tested on: reversed canal sac of intestinum ileum; experiment: Calcium absorption in reversed canal sac, intestinum ileum
Description: as §1

[3] = tested on: reversed canal sac of colon/rectum; experiment: Calcium absorption in reversed canal sac, colon/rectum
Description: as §1

[4] = 200 mM saccharide in external sac solution

## OC[C@@H](O)[C@@H](O[C@H]1O[C@H](CO)[C@@H](O)[C@H](O)[C@H]1O)[C@H](O)[C@@H](O)CO [Maltitol, maltitol, reference compound]
[1]; [4]
  Absorption speed of calcium in alimentary canal sac, Jejunum: 27.9 * nmol/min · cm^2
  Relative value of calcium absorption speed (control = 100), Jejunum: (131)
[1]; reversed sac
  promotion of calcium absorption in jejunum: strongly promoted
[2]; [4]
  Absorption speed of calcium in alimentary canal sac, Intestinum ileum: 40.5 * nmol/min · cm^2
  Relative value of calcium absorption speed (control = 100), Intestinum ileum: (150)
[2]; reversed sac
  promotion of calcium absorption in intestinum ileum: strongly promoted
[3]; [4]
  Absorption speed of calcium in alimentary canal sac, Colon/Rectum: 22.3 * nmol/min · cm^2
  Relative value of calcium absorption speed (control = 100), Colon/Rectum: (168)
[3]; reversed sac
  promotion of calcium absorption in colon/rectum: strongly promoted
